The values that follow come from patent US20120202690A1, “HERBICIDAL COMPOUNDS” (SYNGENTA LIMITED, priority 2009, published 2012).

Common to all, as to format: in vivo
Test [1] has as its system Setaria faberi (SETFA). Briefly: Post-emergence biological efficacy, glasshouse, 500 or 1000 g/ha, evaluated after 13 days (100=total damage to plant; 0=no damage to plant). The following applies: Setaria faberi, 312 h, rate 1,000 g/ha, read-out: Percentage damage caused to weed species, post-emergence, SETFA. An outline of the steps:
(§1)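 Plants raised from seed in pots of standard soil receive the spray after emergence. They then grow on under controlled glasshouse conditions (24/16° C. day/night, 14 hours light, 65% humidity) and are watered twice a day.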

The test system of test [2] is Echinochloa crusgaffi (ECHCG). The description is as above. To be noted: Echinochloa, 312 h, rate 1,000 g/ha, read-out: Percentage damage caused to weed species, post-emergence, ECHCG. An outline of the steps:
as §1

The test system of test [3] is Alopecurus myosuroides (ALOMY). The test is described as above. The following applies: Alopecurus myosuroides, 312 h, rate 1,000 g/ha, read-out: Percentage damage caused to weed species, post-emergence, ALOMY. The gist of the method: as §1
Test [4] has as its system Amaranthus retroflexus (AMARE). The test is described as above. To be noted: Amaranthus retroflexus, 312 h, rate 1,000 g/ha, read-out: Percentage damage caused to weed species, post-emergence, AMARE. The gist of the method: as §1
Test [5] deals with Ipomoea hederaceae (IPOHE). The test is described as above. The following applies: Ipomoea, 312 h, rate 1,000 g/ha, read-out: Percentage damage caused to weed species, post-emergence, IPOHE. The gist of the method: as §1
The subject of test [6] is Solanum nigrum (SOLNI). The test is described as above. The following applies: Solanum nigrum, 312 h, rate 1,000 g/ha, read-out: Percentage damage caused to weed species, post-emergence, SOLNI. The gist of the method: as §1
Test [7] has as its system Setaria faberi (SETFA). Briefly: Pre-emergence biological efficacy, glasshouse, 1000 g/ha, evaluated after 13 days (100=total damage to plant; 0=no damage to plant). The following applies: Setaria faberi, 312 h, rate 1,000 g/ha, read-out: Percentage damage caused to weed species, pre-emergence, SETFA. An outline of the steps: (§2)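 Seeds were sown in standard soil in pots, then grown in a controlled glasshouse at 24/16° C. day/night, 14 hours light and 65% humidity, with watering twice daily.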

Test [8] concerns Alopecurus myosuroides (ALOMY). The description is as above. The following applies: Alopecurus myosuroides, 312 h, rate 1,000 g/ha, read-out: Percentage damage caused to weed species, pre-emergence, ALOMY. An outline of the steps: as §2
Test [9] relates to Echinochloa crus-galli (ECHCG). The test is described as above. To be noted: Echinochloa crus-galli, 312 h, rate 1,000 g/ha, read-out: Percentage damage caused to weed species, pre-emergence, ECHCG. An outline of the steps:
as §2

Test [10] deals with Amaranthus retroflexus (AMARE). The test is described as above. To be noted: Amaranthus retroflexus, 312 h, rate 1,000 g/ha, read-out: Percentage damage caused to weed species, pre-emergence, AMARE. An outline of the steps: as §2
For test [11], the system named is Ipomoea hederaceae (IPOHE). The description is as above. The following applies: Ipomoea, 312 h, rate 1,000 g/ha, read-out: Percentage damage caused to weed species, pre-emergence, IPOHE. An outline of the steps: as §2
Test [12] has as its system Solanum nigrum (SOLNI). The description is as above. To be noted: Solanum nigrum, 312 h, rate 1,000 g/ha, read-out: Percentage damage caused to weed species, pre-emergence, SOLNI. The gist of the method:
as §2

On to `COC(=O)c1nc(-c2ccc(Cl)c(OC)c2F)nc2c1NCCN2Cc1ccccc1` [Compound 95-162, 8-benzyl-2-(4-chloro-2-fluoro-3-methoxyphenyl)-4-methoxycarbonyl-5,6,7,8-tetrahydropteridine], for which the pest or weed control at 1000 g/ha in test [1] was 0%; in [2], 0%; in test [3] it was 10%; in [4], 70%; in test [5] it was 30%; in test [6] it was 40%. Besides, the pest or weed control at 1000 g/ha is 0% in [7]; 10% in test [8]; 0% in [9]; 0% in test [10]; 40% in [11]; 0% in test [12].
Regarding `COc1c(Cl)ccc(-c2cc3[nH]cc(C)c3c(C(=O)OCc3ccco3)n2)c1F` [Compound 22-87, 6-(4-Chloro-2-fluoro-3-methoxyphenyl)-4-(2-furanyl-methoxycarbonyl)-3-methyl-1H-pyrrolo[3,2-c]pyridine], the pest or weed control at 1000 g/ha came to 40% in [1]; 10% in [2]; 20% in [3]; 80% in test [4]; 70% in [5]; 90% in [6]. Besides, the pest or weed control at 1000 g/ha amounted to 10% in test [7]; 10% in test [8]; 10% in test [9]; 20% in [10]; 80% in test [11]; 70% in test [12].
`COC(=O)c1nc(-c2ccc(Cl)c(OC)c2F)nc2c1c(C)cn2Cc1ccccc1` [Compound 6-64, 2-(4-Chloro-2-fluoro-3-methoxyphenyl)-4-methoxycarbonyl-5-methyl-7-phenylmethyl-7H-pyrrolo[2,3-d]pyrimidine]: the pest or weed control at 1000 g/ha turned out to be 0% in [1]; 0% in test [2]; 0% in [3]; 20% in [4]; 50% in [5]; 70% in test [6]. The pest or weed control at 1000 g/ha in test [7] was 0%; in test [8], 0%; in [9], 0%; in [10] it was 50%; in test [11], 30%; in test [12] it was 50%.
As to `COC(=O)c1nc(C2CC2)nc2c1cc(C)n2Cc1ccccc1[N+](=O)[O-]` [Compound 8-6, 2-Cyclopropyl-4-methoxycarbonyl-6-methyl-7-(2-nitrophenyl-methyl)-7H-pyrrolo[2,3-d]pyrimidine], the pest or weed control at 1000 g/ha in test [1] was 0%; in [2], 0%; in [3], 0%; in test [4], 20%; in [5] it was 50%; in [6], 20%. Besides, the pest or weed control at 1000 g/ha in test [7], in [8], in test [9], in test [10], in [11] and in test [12] was 0% in each case.
With `COC(=O)c1nc(-c2ccc(Cl)c(F)c2)nc2c1ccn2Cc1ccccc1[N+](=O)[O-]` [Compound 8-18, 2-(4-Chloro-3-fluorophenyl)-4-methoxycarbonyl-7-(2-nitrophenyl-methyl)-7H-pyrrolo[2,3-d]pyrimidine], the pest or weed control at 1000 g/ha in [1] is 0%; in test [2], 0%; in test [3], 0%; in test [4], 0%; in test [5], 20%; in test [6], 30%. The pest or weed control at 1000 g/ha in [7], in [8], in [9], in [10], in test [11] and in test [12] was 0% in each case.
Take `COC(=O)c1nc(-c2ccc(Cl)c(OC)c2F)nc2c1N(Cc1ccc(OC)cc1OC)C(C)N2Cc1ccc(OC)cc1OC` (stereo not drawn) [Compound 83-48, 2-(4-Chloro-2-fluoro-3-methoxyphenyl)-7,9-bis(2,4-dimethoxyphenyl-methyl)-6-methoxycarbonyl-8-methyl-8,9-dihydro-7H-purine]: the pest or weed control at 1000 g/ha in [1] is 20%; in test [2], 20%; in test [3], 20%; in [4] it was 0%; in [5], 10%; in test [6] it was 20%. For the same compound, the pest or weed control at 1000 g/ha in test [7], in test [8], in test [9], in test [10], in test [11] and in [12] was 0% throughout.
`COc1c(Cl)ccc(-c2cc3[nH]cc(C)c3c(C(=O)OCC3CCCO3)n2)c1F` (stereo not drawn) [Compound 22-88, 6-(4-Chloro-2-fluoro-3-methoxyphenyl)-3-methyl-4-(tetrahydrofuran-2-yl-methoxycarbonyl)-1H-pyrrolo[3,2-c]pyridine]: the pest or weed control at 1000 g/ha in test [1] amounted to 40%; in [2], 20%; in [3] it was 30%; in [4] it was 80%; in test [5], 60%; in test [6], 90%. The pest or weed control at 1000 g/ha in test [7] turned out to be 10%; in test [8], 10%; in test [9], 0%; in test [10], 100%; in test [11], 50%; in test [12], 100%.
For the compound `COC(=O)c1nc(C2CC2)nc2c1ccn2Cc1ccccc1[N+](=O)[O-]` [Compound 8-2, 2-Cyclopropyl-4-methoxycarbonyl-7-(2-nitrophenyl-methyl)-7H-pyrrolo[2,3-d]pyrimidine], the pest or weed control at 1000 g/ha was 0% in test [1]; 0% in [2]; 0% in test [3]; 0% in test [4]; 20% in [5]; 20% in test [6]. The pest or weed control at 1000 g/ha in [7], in [8], in test [9], in test [10], in [11] and in [12] was 0% each time.
In the case of `COC(=O)c1nc(-c2ccc(Cl)c(F)c2)nc2c1ccn2Cc1ccco1` [Compound 11-18, 2-(4-Chloro-3-fluorophenyl)-7-(2-furanyl-methyl)-4-methoxycarbonyl-7H-pyrrolo[2,3-d]pyrimidine], the pest or weed control at 1000 g/ha in test [1] is 0%; in [2] it was 0%; in [3] it was 0%; in test [4], 0%; in test [5], 20%; in [6], 50%. Further, the pest or weed control at 1000 g/ha in [7], in [8], in test [9], in test [10], in [11] and in test [12] was 0% each time.
